For the assay, the system named is BDF1 mice, P388 leukemia ip, median survival T/C. As to the kind of experiment: NCI In Vivo Anticancer Drug Screen. Data for tumor model P388 Leukemia (intraperitoneal) in B6D2F1 (BDF1) mice. Particulars: endpoint: median survival time, higher = longer survival. The method in brief: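 Reported as T/C, where T is the survival measurement in dosed animals and C the same measurement in vehicle controls.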

Where [1] appears, read: dose: 100.0 mg/kg/injection, schedule: Q01DX009 (ip), vehicle: Klucel (hydroxypropylcellulose) (HPC).
Setting [2] is: dose: 200.0 mg/kg/injection, schedule: Q01DX009 (ip), vehicle: Klucel (hydroxypropylcellulose) (HPC).
Where [3] appears, read: dose: 400.0 mg/kg/injection, schedule: Q01DX009 (ip), vehicle: Klucel (hydroxypropylcellulose) (HPC).
Where [4] appears, read: dose: 50.0 mg/kg/injection, schedule: Q01DX009 (ip), vehicle: saline with Tween-80.
The mark [5] stands for this setting: dose: 100.0 mg/kg/injection, schedule: Q01DX009 (ip), vehicle: saline with Tween-80.
[6] abbreviates: dose: 200.0 mg/kg/injection, schedule: Q01DX009 (ip), vehicle: saline with Tween-80.
The mark [7] stands for this setting: dose: 12.5 mg/kg/injection, schedule: Q01DX009 (ip), vehicle: saline with Tween-80.
Setting [8] is: dose: 25.0 mg/kg/injection, schedule: Q01DX009 (ip), vehicle: saline with Tween-80.

Values joined by “and” are separate entries in the source; they are usually repeats but may differ in a detail not shown here. Equal values may be shown once. Toxic doses and inconclusive results are not listed.

On to `CN(C)/N=N/c1nc[nH]c1C(N)=O`, for which the T/C is, setting by setting: (dose: 25.0 mg/kg/injection, schedule: Q01DX010 (ip), vehicle: saline) 116 % of control; (dose: 50.0 mg/kg/injection, schedule: Q01DX009 (ip), vehicle: Klucel (hydroxypropylcellulose) (HPC)) 100 % of control and 108 % of control and 123 % of control; (dose: 50.0 mg/kg/injection, schedule: Q01DX010 (ip), vehicle: saline) 100 % of control; under setting [1], 92 % of control and 97 % of control and 100 % of control; under setting [2], 100 % of control (2×) and 115 % of control; (dose: 208.0 mg/kg/injection, schedule: Q01DX001 (ip), vehicle: carboxymethylcellulose (CMC)) 109 % of control. Besides, the T/C reads like this: (dose: 275.0 mg/kg/injection, schedule: Q01DX001 (ip), vehicle: carboxymethylcellulose (CMC)) 110 % of control and 116 % of control; under setting [3], 115 % of control and 122 % of control and 123 % of control; (dose: 418.0 mg/kg/injection, schedule: Q01DX001 (ip), vehicle: carboxymethylcellulose (CMC)) 119 % of control; (dose: 775.0 mg/kg/injection, schedule: Q01DX001 (ip), vehicle: carboxymethylcellulose (CMC)) 158 % of control.
As to `CC1(C)OC(=O)C(=Cc2c(Cl)cccc2Cl)C(=O)O1`, the T/C (dose: 100.0 mg/kg/injection, schedule: Q01DX001 (ip), vehicle: Klucel (hydroxypropylcellulose) (HPC)) was 109 % of control; the T/C under setting [1] is 87 % of control; the T/C (dose: 200.0 mg/kg/injection, schedule: Q01DX001 (ip), vehicle: Klucel (hydroxypropylcellulose) (HPC)) is 104 % of control; the T/C under setting [2] was 104 % of control; the T/C (dose: 400.0 mg/kg/injection, schedule: Q01DX001 (ip), vehicle: Klucel (hydroxypropylcellulose) (HPC)) was 109 % of control; the T/C under setting [3] was 100 % of control.
Take `OCC1OC(OC2(CO)OC(CO)C(O)C2O)C(O)C(O)C1O` (configuration not stated): the T/C was 118 % of control (dose: 11.0 mg/kg/injection, schedule: Q01DX009 (ip), vehicle: saline); 113 % of control and 115 % of control (dose: 22.0 mg/kg/injection, schedule: Q01DX009 (ip), vehicle: saline); 115 % of control and 122 % of control (dose: 67.0 mg/kg/injection, schedule: Q01DX009 (ip), vehicle: saline); 115 % of control (dose: 100.0 mg/kg/injection, schedule: Q01DX010 (ip), vehicle: saline); 103 % of control (dose: 200.0 mg/kg/injection, schedule: Q01DX010 (ip), vehicle: saline); 100 % of control (dose: 400.0 mg/kg/injection, schedule: Q01DX010 (ip), vehicle: saline). Besides, for the setting “dose: 600.0 mg/kg/injection, schedule: Q01DX010 (ip), vehicle: saline”, the T/C is 115 % of control.
Consider `COCCn1c2c(n/c(=C(\O)OC)c1=N)CCCC=2`, for which the T/C under setting [4] is 106 % of control, the T/C under setting [5] was 116 % of control and the T/C under setting [6] is 97 % of control.
`N=C1N=C(C(F)(F)F)N=C1c1[nH]c(C(F)(F)F)nc1N`: the T/C reads like this: (dose: 3.12 mg/kg/injection, schedule: Q01DX009 (ip), vehicle: water) 105 % of control; (dose: 6.25 mg/kg/injection, schedule: Q01DX009 (ip), vehicle: water) 105 % of control; (dose: 12.5 mg/kg/injection, schedule: Q01DX009 (ip), vehicle: water) 113 % of control; (dose: 25.0 mg/kg/injection, schedule: Q01DX009 (ip), vehicle: water) 103 % of control and 105 % of control; (dose: 25.0 mg/kg/injection, schedule: Q04DX003 (ip), vehicle: water) 100 % of control; (dose: 50.0 mg/kg/injection, schedule: Q01DX009 (ip), vehicle: water) 92 % of control. Besides, the T/C (dose: 50.0 mg/kg/injection, schedule: Q04DX003 (ip), vehicle: water) was 99 % of control; the T/C (dose: 100.0 mg/kg/injection, schedule: Q01DX009 (ip), vehicle: water) is 106 % of control; the T/C (dose: 100.0 mg/kg/injection, schedule: Q04DX003 (ip), vehicle: water) was 98 % of control; the T/C (dose: 200.0 mg/kg/injection, schedule: Q01DX009 (ip), vehicle: water) is 97 % of control; the T/C (dose: 200.0 mg/kg/injection, schedule: Q04DX003 (ip), vehicle: water) is 94 % of control; the T/C (dose: 400.0 mg/kg/injection, schedule: Q01DX009 (ip), vehicle: water) is 104 % of control. Further, the T/C (dose: 400.0 mg/kg/injection, schedule: Q04DX003 (ip), vehicle: water) was 109 % of control.
`O=CN(SSN(C=O)C1CCCCC1)C1CCCCC1`: the T/C reads like this: under setting [4], 108 % of control and 116 % of control; under setting [5], 122 % of control.
As to `Cc1ccc(/C(CN2CCOCC2)=N\O)cc1`, the T/C (dose: 50.0 mg/kg/injection, schedule: Q01DX001 (ip), vehicle: saline sonified) is 105 % of control; the T/C (dose: 100.0 mg/kg/injection, schedule: Q01DX001 (ip), vehicle: saline sonified) was 105 % of control; the T/C (dose: 200.0 mg/kg/injection, schedule: Q01DX001 (ip), vehicle: saline sonified) was 105 % of control.
For `CC1(C)O[Se](=O)OC1(C)C`, under “dose: 6.25 mg/kg/injection, schedule: Q04DX003 (ip), vehicle: saline”, the T/C is 100 % of control.
For `COc1cccc(/C=N/NC(=O)C2CCN(C(=S)NC3CC4C=CC3C4)CC2)c1O` (configuration not stated), the T/C is, setting by setting: (dose: 1.56 mg/kg/injection, schedule: Q01DX009 (ip), vehicle: saline with Tween-80) 90 % of control; (dose: 3.12 mg/kg/injection, schedule: Q01DX009 (ip), vehicle: saline with Tween-80) 89 % of control; (dose: 6.25 mg/kg/injection, schedule: Q01DX009 (ip), vehicle: saline with Tween-80) 87 % of control and 92 % of control; under setting [7], 89 % of control; under setting [8], 92 % of control; under setting [4], 101 % of control.
As to `Cc1ccc(NC(=O)N(CCCl)N=O)cc1C`, the T/C is 159 % of control (dose: 6.6 mg/kg/injection, schedule: Q04DX003 (ip), vehicle: saline with Tween-80); 209 % of control (dose: 10.0 mg/kg/injection, schedule: Q04DX003 (ip), vehicle: saline with Tween-80); 204 % of control (dose: 15.0 mg/kg/injection, schedule: Q04DX003 (ip), vehicle: saline with Tween-80).
`O=C(O)C(O)C(O)C(O)C(O)CO.[Mn]` (configuration not stated): the T/C runs as follows: (dose: 66.0 mg/kg/injection, schedule: Q01DX009 (ip), vehicle: saline) 116 % of control; (dose: 100.0 mg/kg/injection, schedule: Q01DX009 (ip), vehicle: saline) 116 % of control.
Consider `CN=C(N)NCCCCCCCCNC(N)=NC`, for which the T/C is, setting by setting: (dose: 6.25 mg/kg/injection, schedule: Q01DX009 (ip), vehicle: saline) 110 % of control; (dose: 12.5 mg/kg/injection, schedule: Q01DX009 (ip), vehicle: saline) 122 % of control.
With `CN(C)c1ccc(C2NC(=S)NC3=C2CCCC3)cc1` (configuration not stated), the T/C reads like this: under setting [7], 108 % of control; under setting [8], 111 % of control; under setting [4], 88 % of control and 109 % of control.
For the molecule `COc1ccc(OC)c(C(=O)CC(O)(C(F)(F)F)C(F)(F)F)c1`, the T/C reads like this: under setting [5], 95 % of control; (dose: 100.0 mg/kg/injection, schedule: Q04DX003 (ip), vehicle: saline with Tween-80) 120 % of control; under setting [6], 108 % of control; (dose: 200.0 mg/kg/injection, schedule: Q04DX003 (ip), vehicle: saline with Tween-80) 110 % of control; (dose: 400.0 mg/kg/injection, schedule: Q01DX009 (ip), vehicle: saline with Tween-80) 104 % of control; (dose: 400.0 mg/kg/injection, schedule: Q04DX003 (ip), vehicle: saline with Tween-80) 100 % of control.
For the molecule `CC12CCC3C4CCC(=O)C(O)=C4CCC3C1CCC2OC(=O)CCC1CCCC1` (configuration not stated), the T/C runs as follows: (dose: 100.0 mg/kg/injection, schedule: Q04DX003 (sc), vehicle: steriod suspending solution) 86 % of control; (dose: 400.0 mg/kg/injection, schedule: Q04DX003 (sc), vehicle: steriod suspending solution) 95 % of control.
Turning to `FC(F)(F)c1ccc2c(c1)N(CCCN(CCCl)CCCl)c1ccccc1S2`, the T/C is 112 % of control (dose: 3.1 mg/kg/injection, schedule: Q04DX003 (ip), vehicle: saline with Tween-80); 122 % of control (dose: 6.25 mg/kg/injection, schedule: Q04DX003 (ip), vehicle: saline with Tween-80); 119 % of control (dose: 25.0 mg/kg/injection, schedule: Q04DX003 (ip), vehicle: saline with Tween-80).

The values above are taken from PubChem BioAssay AID328 (DTP/NCI, 2004).
